Measured values taken from the supplement of paper PMC10307832.

Experiments:
Assay in all cases: relative viability (nuclei count vs DMSO), 5 days (fraction); higher = more cells survive
[1] = compound: CN(C)C/C=C/C(=O)Nc1cc2c(Nc3ccc(F)c(Cl)c3)ncnc2cc1O[C@H]1CCOC1 [Afatinib] + CC(=O)c1c(C)c2cnc(Nc3ccc(N4CCNCC4)cn3)nc2n(C2CCCC2)c1=O [Palbociclib] (partner 0.5 µM)
Procedure, shortened: (§1)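 Relative viability divides the nuclei count in treated wells by that in vehicle wells. Lung cancer cell lines were seeded in 1536-well plates, dosed by pin tool the next day, and fixed and stained after 5 days in one step with final 0.05% Triton X-100, 1% formaldehyde and 1 ug/ml Hoechst. Dosing was a single drug or a fixed anchor-drug dose plus five library-drug doses (not always all listed) in √10 steps, and values are medians of duplicate plates imaged at 4×.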

[2] = compound: CN(C)C/C=C/C(=O)Nc1cc2c(Nc3ccc(F)c(Cl)c3)ncnc2cc1O[C@H]1CCOC1 [Afatinib] + CC(C)C[C@H](NC(=O)[C@H](Cc1ccccc1)NC(=O)c1cnccn1)B(O)O [Bortezomib] (partner 0.002 µM)
Procedure, shortened: as §1

[3] = compound: CN(C)C/C=C/C(=O)Nc1cc2c(Nc3ccc(F)c(Cl)c3)ncnc2cc1O[C@H]1CCOC1 [Afatinib] + Cc1nc(Nc2ncc(C(=O)Nc3c(C)cccc3Cl)s2)cc(N2CCN(CCO)CC2)n1 [Dasatinib] (partner 0.075 µM)
Procedure, shortened: as §1

[4] = compound: CN(C)C/C=C/C(=O)Nc1cc2c(Nc3ccc(F)c(Cl)c3)ncnc2cc1O[C@H]1CCOC1 [Afatinib] + Cc1nc(NC(=O)N2CCC[C@H]2C(N)=O)sc1-c1ccnc(C(C)(C)C(F)(F)F)c1 [Alpelisib] (partner 2 µM)
Procedure, shortened: as §1

Cell Line | relative viability ([1]; first compound 0.005 µM) | relative viability ([1]; first compound 0.01581 µM) | relative viability ([1]; first compound 0.05 µM) | relative viability ([1]; first compound 0.1581 µM) | relative viability ([1]; first compound 0.5 µM) | relative viability ([2]; first compound 0.005 µM) | relative viability ([2]; first compound 0.01581 µM) | relative viability ([2]; first compound 0.05 µM) | relative viability ([2]; first compound 0.1581 µM) | relative viability ([2]; first compound 0.5 µM) | relative viability ([3]; first compound 0.005 µM) | relative viability ([3]; first compound 0.01581 µM) | relative viability ([3]; first compound 0.05 µM) | relative viability ([3]; first compound 0.1581 µM) | relative viability ([3]; first compound 0.5 µM) | relative viability ([4]; first compound 0.005 µM) | relative viability ([4]; first compound 0.01581 µM) | relative viability ([4]; first compound 0.05 µM) | relative viability ([4]; first compound 0.1581 µM) | relative viability ([4]; first compound 0.5 µM)
NCI-H661 | 0.387 | 0.339 | 0.347 | 0.34 | 0.337 | 0.877 | 0.751 | 0.662 | 0.444 | 0.415 | 0.858 | 0.527 | 0.375 | 0.341 | 0.332 | 0.666 | 0.389 | 0.475 | 0.398 | 0.349
NCI-H650 | 0.343 | 0.34 | 0.395 | 0.331 | 0.336 | 1.07 | 0.802 | 0.957 | 0.949 | 0.597 | 0.559 | 0.428 | 0.481 | 0.599 | 0.411 | 1.23 | 1.11 | 1.14 | 1.25 | 1.06
NCI-H647 | 0.37 | 0.335 | 0.385 | 0.368 | 0.312 | 0.921 | 0.808 | 1.08 | 1.11 | 1 | 0.24 | 0.141 | 0.201 | 0.192 | 0.172 | 1.22 | 1.13 | 1.17 | 1.03 | 1.05
201T | 0.336 | 0.346 | 0.354 | 0.358 | 0.339 | 1.09 | 0.921 | 1.02 | 1.07 | 1.13 | 0.589 | 0.517 | 0.581 | 0.56 | 0.544 | 1 | 0.961 | 0.922 | 0.918 | 0.935
NCI-H838 | 0.216 | 0.227 | 0.242 | 0.214 | 0.233 | 0.869 | 0.958 | 1.01 | 0.667 | 1.05 | 0.33 | 0.319 | 0.331 | 0.203 | 0.269 | 0.93 | 1.1 | 1.06 | 0.905 | 1.1
SW 1573 | 0.451 | 0.364 | 0.404 | 0.306 | 0.362 | 1.12 | 1.07 | 1.05 | 0.98 | 1.1 | 0.355 | 0.438 | 0.528 | 0.475 | 0.417 | 0.778 | 0.805 | 0.805 | 0.811 | 0.668
PC-14 | 0.0841 | 0.0837 | 0.079 | 0.0664 | 0.0642 | 0.303 | 0.256 | 0.268 | 0.222 | 0.249 | 0.0312 | 0.0316 | 0.0366 | 0.0312 | 0.0453 | 0.169 | 0.15 | 0.137 | 0.127 | 0.163
COR-L23 | 0.329 | 0.308 | 0.317 | 0.274 | 0.339 | 1.1 | 1.04 | 1.11 | 1.03 | 0.988 | 0.575 | 0.484 | 0.536 | 0.426 | 0.535 | 0.922 | 0.728 | 0.935 | 0.685 | 0.752
HCC-78 | 0.46 | 0.41 | 0.452 | 0.594 | 0.461 | 0.528 | 0.514 | 0.566 | 0.362 | 0.434 | 0.445 | 0.341 | 0.366 | 0.29 | 0.331 | 0.373 | 0.345 | 0.273 | 0.228 | 0.217
NCI-H2405 | 0.555 | 0.562 | 0.57 | 0.513 | 0.508 | 1 | 0.953 | 0.975 | 0.931 | 1.01 | 0.243 | 0.201 | 0.207 | 0.219 | 0.196 | 0.703 | 0.804 | 0.875 | 0.708 | 0.913
SK-LU-1 | 0.355 | 0.416 | 0.413 | 0.396 | 0.4 | 1.07 | 1.28 | 1.33 | 1.28 | 1.09 | 0.179 | 0.203 | 0.211 | 0.175 | 0.222 | 1.38 | 0.918 | 1.06 | 1.1 | 0.913
EMC-BAC-2 | 0.539 | 0.531 | 0.551 | 0.498 | 0.519 | 1.03 | 1.05 | 1 | 0.927 | 1.03 | 0.314 | 0.302 | 0.33 | 0.315 | 0.296 | 0.734 | 0.635 | 0.635 | 0.603 | 0.634
LCLC-97TM1 | 0.222 | 0.232 | 0.23 | 0.239 | 0.201 | 0.733 | 0.646 | 0.648 | 0.463 | 0.619 | 0.926 | 0.766 | 0.812 | 0.709 | 0.842 | 0.175 | 0.286 | 0.313 | 0.184 | 0.211
H3255 | 0.267 | 0.269 | 0.289 | 0.26 | 0.258 | 0.252 | 0.194 | 0.221 | 0.184 | 0.231 | 0.202 | 0.195 | 0.264 | 0.326 | 0.242 | 0.209 | 0.135 | 0.168 | 0.123 | 0.123
LXF-289 | 0.604 | 0.561 | 0.553 | 0.486 | 0.533 | 1.04 | 0.906 | 0.947 | 0.905 | 0.936 | 0.238 | 0.27 | 0.253 | 0.208 | 0.228 | 0.97 | 1.01 | 1.02 | 0.919 | 0.975
UMC-11 | 0.355 | 0.325 | 0.283 | 0.308 | 0.325 | 0.998 | 0.735 | 0.667 | 0.669 | 0.777 | 0.657 | 0.439 | 0.436 | 0.419 | 0.419 | 1 | 1.03 | 0.953 | 0.963 | 1.13
